Measured values taken from patent US7771712B2, “Composition for attracting blood sucking arthropods and fruit flies” (priority 2002, dated 2010).

System: female A. aegypti
Assay: Y-tube olfactometer, single compound added to index finger scent against pure finger
Assay type: in vivo, Aedes aegypti
Description: In this example, the effect of adding certain compounds to the scent of a finger of a human volunteer was tested, using the set-up as described for example 1. The right and left index finger of each test person were tested in direct competition with simultaneous addition of a single compound to one finger; Martina (A) is highly, Martin (B) medium, and Doris (C) low attractive. The test components were alternately added to the right or to the left finger, respectively. Bars (means of 16 trials±S.E.M.) represent the percentage of mosquitoes trapped in the respective upwind chamber. Black bars represent the pure finger, white bars the mixture of finger plus the odor stimulus indicated below the bar; stimulus labels as described in FIG. 3A; asterisks indicate a significant preference (P<0.05, t-test for paired samples).
A) is a top view of the olfactometer for testing mosquitoes' odour preference. The spatial distribution of odourants in the air are outlined according to the appearance of TiCl4 smoke, which was injected into the olfactometer instead of the odour stimulus. In the arms of the olfactometer the smoke was homogeneous distributed^20. More turbulent odour eddies and filaments emerged in the rectangular chamber, although a steep gradient between both air streams can still be observed in the joined straight tube. For each test, 20 female A. aegypti mosquitoes were used from cultures of Bayer AG in Monheim, 5-15 days old, which had no blood meal before. Details of the olfactometer and the experimental procedure are described elsewhere (Geier, M. & Boeckh, J. Entomol. exp. appl. 92, 9-19 (1999); Geier, M., Bosch, O. J. & Boeckh, J. Chem. Sens. 24, 647-653 (1999)).
At stimulus onset, 20 mosquitoes in the start chamber are set free to fly through the olfactometer. During their zig zag flight through the straight tube they encounter alternately air streams from either arm. Following the favoured air stream during upwind flight the mosquitoes enter the respective upwind chamber where they are counted 30 s after stimulus onset. […]

N [Ammonia+100, Ammonia]
Attractiveness of finger scent plus compound against pure finger (FIG. 4 A, highly attractive person): less attractive

CC(=O)O [acetic acid, Acetic acid]
Attractiveness of finger scent plus compound against pure finger (up to 50-fold higher concentration than in the standard blend, any of the persons): did not change the attractiveness

CCCCCC(=O)O [capronic acid, Caproic acid]
Attractiveness of finger scent plus compound against pure finger (FIG. 4 C, low attractive person, all concentrations): more attractive
